Patent EP4653444A1, “FUSED TRICYCLIC COMPOUND AS KINASE INHIBITOR” (Hangzhou Innogate Pharma Co., Ltd., priority 2023, dated 2024)
pIC50: −log10 of the molar value.

Legend:
in vivo = settings: rat, po, 3 mg/kg
FAK kinase = FAK kinase (Homo sapiens, UniProt Q05397); assay: FAK kinase activity inhibition assay, method A (HTRF) and method B (Lantha screen); assay type: biochemical
Description: The HTRF method was used to evaluate the inhibitory activity of the compounds against FAK kinase. […]. The reaction conditions were: FAK kinase at 0.1 ng/µL; ATP 10 µM; substrate concentration 1 µM. Compounds were serially diluted in DMSO and shaken on a shaker for 20 minutes. Prepare 2× kinase using 1× reaction buffer. Transfer 25 nL compound to a 384-well plate using Echo 655. Add 2.5 µL kinase per well. Seal the plate with sealing film, centrifuge at 1000 rpm for 60 seconds, and incubate at 25°C for 12 hours. Prepare 2× ATP/substrate mix using 1× enzyme reaction buffer and add 2.5 µL 2× ATP/substrate mix per well. Seal the plate with sealing film, centrifuge at 1000 rpm for 60 seconds, and incubate at 25°C for 50 minutes. Prepare 2×XL665 & antibody solution using HTRF detection buffer, and add 5 µL per well. Incubate at 25°C for 60 minutes. Read fluorescence at 620 nm (Cryptate) and 665 nm (XL665). Calculate the ratio per well (Ratio_665/620 nm). % Inhibition = 100% - [(Compound Ratio - Positive Control Ratio)/ (Negative Control Ratio - Positive Control Ratio)] × 100%. IC50 values (half-maximal inhibitory concentration) were calculated by nonlinear regression using GraphPad Prism 7.0. Y = Bottom + (Top - Bottom)/ (1 + 10^ ((LogIC50 - X) × Hill Slope)), where X is the log of compound concentration and Y is the % inhibition.
The Lantha screen assay was used to evaluate the FAK kinase inhibitory activity. Compounds were dissolved in 100% DMSO at 10 mM stock concentration. Prepare 1× kinase buffer (25 mM HEPES, pH 7.5, 0.01 mM Triton, 0.5 mM EGTA, 0.01% Brij-35). Dilute compounds in a gradient, and transfer 5 µL compound into the reaction plate. Prepare 2× kinase solution with 1× Kinase buffer. Add 5 µL kinase solution to compound and positive control wells, and 5 µL 1× Kinase buffer to negative control wells. Mix reaction plate by shaking. Prepare 4× ATP/Fluorescein-polyGT substrate mix with 1× Kinase buffer. Add 2.5 µL substrate solution to initiate the reaction. Shake and incubate at room temperature for 30 minutes. Prepare 2× detection reagent (2 nM antibody, 10 mM EDTA) and add 10 µL per well to stop the reaction. Briefly centrifuge, mix, and incubate for 60 minutes. Read fluorescence at 340 nm excitation and 520 nm/495 nm emission using EnVision. Collect data and calculate 520 nm/495 nm ratio. Calculate the inhibition percentage using the formula: % Inhibition = (Max - Sample Ratio)/(Max - Min) × 100, where min is the mean of negative control wells (no enzyme activity), and max is the mean of positive control wells (DMSO-inhibited conversion rate).Use XLFit Excel add-in version 5.4.0.8 to determine the IC50 values of each compound against the enzyme activity: Y = Bottom + (Top - Bottom)/(1 + (IC50/X)^HillSlope).

HPK1 kinase = HPK1 kinase (Homo sapiens, UniProt Q92918); assay: HPK1 kinase activity inhibition assay (Mobility shift assay); assay type: biochemical
Description: Measure compound inhibitory activity against HPK1 kinase using Mobility shift assay. Compounds were dissolved in 100% DMSO to prepare 10 mM stock solutions. 1× Kinase buffer was prepared. Test compounds were serially diluted in 5-fold gradients, and 250 nL of 100× final concentration compounds were transferred to destination plate 3573 using an Echo 550 liquid handler. A 2.5× final concentration kinase solution was prepared in 1× Kinase Buffer. 10 µL of the 2.5× kinase solution was added to both compound wells and positive control wells, while 10 µL of 1× Kinase buffer was added to negative control wells. The plate was centrifuged at 1000 rpm for 30 seconds, mixed by orbital shaking, and incubated at room temperature for 10 minutes. A 5/3× final concentration mixture of ATP and Kinase substrate 25 was prepared in 1× Kinase buffer. 15 µL of the 5/3× ATP/substrate mixture was added to initiate the reaction. The 384-well plate was centrifuged at 1000 rpm for 30 seconds, mixed by shaking, and incubated at room temperature for 120 minutes. The kinase reaction was terminated by adding 30 µL stop solution, followed by centrifugation at 1000 rpm for 30 seconds and mixing. Conversion rates were measured using a Caliper EZ Reader. The inhibition percentage was calculated as: %Inhibition = (Conversion%_max - Conversion%_sample)/(Conversion%_max - Conversion%_min) × 100. Where Conversion%_sample: Conversion rate reading of test samples; Conversion%_min: Mean value of negative control wells (representing conversion rate without enzyme activity); Conversion%_max: Mean value of positive control wells (representing conversion rate without compound inhibition). Dose-response curves were plotted with log(concentration) as the X-axis and percentage inhibition as the Y-axis. Curve fitting was performed using GraphPad Prism 5 software with the "log(inhibitor) vs. response - Variable slope" model to derive IC50 values for each compound's enzyme inhibitory activity. The fitting formula was: Y = Bottom + (Top - Bottom)/(1 + 10^((LogIC50 - X) × HillSlope)).

FLT3 = molecular target: T1, FLT3 (Homo sapiens, UniProt P36888); assay: FLT3 kinase activity inhibition assay (Mobility shift assay); assay type: biochemical
T1 sequence (P36888 27-993): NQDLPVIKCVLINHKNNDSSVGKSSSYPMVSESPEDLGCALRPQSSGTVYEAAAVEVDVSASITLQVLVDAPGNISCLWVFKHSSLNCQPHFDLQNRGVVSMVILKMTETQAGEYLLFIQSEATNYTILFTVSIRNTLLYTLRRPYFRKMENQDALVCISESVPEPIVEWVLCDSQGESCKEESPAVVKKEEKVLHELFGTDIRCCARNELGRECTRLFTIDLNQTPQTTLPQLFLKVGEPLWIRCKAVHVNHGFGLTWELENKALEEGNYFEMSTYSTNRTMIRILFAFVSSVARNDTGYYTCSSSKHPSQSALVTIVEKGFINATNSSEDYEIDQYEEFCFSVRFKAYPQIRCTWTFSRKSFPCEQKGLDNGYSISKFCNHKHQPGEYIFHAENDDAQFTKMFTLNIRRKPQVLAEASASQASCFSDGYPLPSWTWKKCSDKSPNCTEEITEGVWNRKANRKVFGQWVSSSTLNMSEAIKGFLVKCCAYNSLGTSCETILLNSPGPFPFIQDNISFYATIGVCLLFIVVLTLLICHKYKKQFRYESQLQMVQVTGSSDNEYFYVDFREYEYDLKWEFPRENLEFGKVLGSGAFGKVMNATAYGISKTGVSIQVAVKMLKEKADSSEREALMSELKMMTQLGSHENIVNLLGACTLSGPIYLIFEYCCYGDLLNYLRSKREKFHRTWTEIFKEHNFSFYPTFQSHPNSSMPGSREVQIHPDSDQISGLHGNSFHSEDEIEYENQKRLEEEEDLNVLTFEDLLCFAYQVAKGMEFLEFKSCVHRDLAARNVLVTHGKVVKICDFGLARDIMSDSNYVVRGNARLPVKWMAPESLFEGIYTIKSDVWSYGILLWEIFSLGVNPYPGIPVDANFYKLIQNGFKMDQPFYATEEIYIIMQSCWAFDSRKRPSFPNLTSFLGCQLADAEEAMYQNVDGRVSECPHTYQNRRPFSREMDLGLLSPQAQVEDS
Description: Testing compound inhibitory activity against FLT3 and AXL kinases using Mobility shift assay. Compounds were dissolved in 100% DMSO to prepare 10 mM stock solutions. Prepare 1× Kinase Buffer. Test compounds were serially diluted in 5-fold gradients, and 250 nL of 100× final concentration compounds were transferred to destination plate 3573 using an Echo 550 liquid handler. A 2.5× final concentration kinase solution was prepared in 1× Kinase Buffer. Then, 10 µL of the 2.5× kinase solution was added to both compound wells and positive control wells, while 10 µL of 1× Kinase Buffer was added to negative control wells. The plate was centrifuged at 1000 rpm for 30 seconds, mixed by orbital shaking, and incubated at room temperature for 10 minutes. A 5/3× final concentration mixture of ATP and Kinase Substrate 25 was prepared in 1× Kinase Buffer. The reaction was initiated by adding 15 µL of the 5/3× ATP/substrate mixture. The 384-well plate was centrifuged at 1000 rpm for 30 seconds, mixed by shaking, and incubated at room temperature for 120 minutes. The kinase reaction was terminated by adding 30 µL stop solution, followed by centrifugation at 1000 rpm for 30 seconds and mixing. Conversion rates were measured using a Caliper EZ Reader. %Inhibition = (Conversion%_max - Conversion%_sample)/(Conversion%_max - Conversion%_min) × 100. Where: Conversion%_sample: Conversion rate reading of test samples; Conversion%_min: Mean value of negative control wells (representing conversion rate without enzyme activity); Conversion%_max: Mean value of positive control wells (representing conversion rate without compound inhibition). Dose-response curves were plotted with log(concentration) as the X-axis and percentage inhibition as the Y-axis. Curve fitting was performed using GraphPad Prism 5 software with the "log(inhibitor) vs. response - Variable slope" model to derive IC50 values for each compound's enzyme inhibitory activity. The fitting formula was: Y = Bottom + (Top - Bottom)/(1 + 10^((LogIC50 - X) × HillSlope)).

HPK1 kinase, sequence (Q92918 whole entry): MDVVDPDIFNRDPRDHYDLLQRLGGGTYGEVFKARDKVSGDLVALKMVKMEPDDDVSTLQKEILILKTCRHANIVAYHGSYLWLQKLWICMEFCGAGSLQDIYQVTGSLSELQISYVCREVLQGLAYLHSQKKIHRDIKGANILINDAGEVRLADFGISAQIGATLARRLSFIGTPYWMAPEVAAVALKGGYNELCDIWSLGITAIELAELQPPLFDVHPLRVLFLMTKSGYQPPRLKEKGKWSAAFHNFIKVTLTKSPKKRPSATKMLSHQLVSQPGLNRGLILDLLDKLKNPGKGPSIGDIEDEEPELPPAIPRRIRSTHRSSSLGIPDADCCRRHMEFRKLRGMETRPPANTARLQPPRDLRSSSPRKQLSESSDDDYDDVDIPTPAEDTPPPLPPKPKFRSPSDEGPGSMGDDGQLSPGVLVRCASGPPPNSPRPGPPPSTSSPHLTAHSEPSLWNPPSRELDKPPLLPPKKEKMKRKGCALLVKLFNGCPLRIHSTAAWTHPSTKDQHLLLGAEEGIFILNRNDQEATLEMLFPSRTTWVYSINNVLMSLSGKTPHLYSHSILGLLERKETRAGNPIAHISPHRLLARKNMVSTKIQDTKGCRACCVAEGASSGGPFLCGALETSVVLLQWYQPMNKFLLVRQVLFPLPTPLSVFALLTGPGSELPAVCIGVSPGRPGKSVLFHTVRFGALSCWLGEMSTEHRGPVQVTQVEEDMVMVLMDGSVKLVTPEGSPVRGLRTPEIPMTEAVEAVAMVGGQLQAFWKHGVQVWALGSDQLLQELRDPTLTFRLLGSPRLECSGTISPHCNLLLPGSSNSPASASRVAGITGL
FAK kinase, sequence (Q05397 whole entry): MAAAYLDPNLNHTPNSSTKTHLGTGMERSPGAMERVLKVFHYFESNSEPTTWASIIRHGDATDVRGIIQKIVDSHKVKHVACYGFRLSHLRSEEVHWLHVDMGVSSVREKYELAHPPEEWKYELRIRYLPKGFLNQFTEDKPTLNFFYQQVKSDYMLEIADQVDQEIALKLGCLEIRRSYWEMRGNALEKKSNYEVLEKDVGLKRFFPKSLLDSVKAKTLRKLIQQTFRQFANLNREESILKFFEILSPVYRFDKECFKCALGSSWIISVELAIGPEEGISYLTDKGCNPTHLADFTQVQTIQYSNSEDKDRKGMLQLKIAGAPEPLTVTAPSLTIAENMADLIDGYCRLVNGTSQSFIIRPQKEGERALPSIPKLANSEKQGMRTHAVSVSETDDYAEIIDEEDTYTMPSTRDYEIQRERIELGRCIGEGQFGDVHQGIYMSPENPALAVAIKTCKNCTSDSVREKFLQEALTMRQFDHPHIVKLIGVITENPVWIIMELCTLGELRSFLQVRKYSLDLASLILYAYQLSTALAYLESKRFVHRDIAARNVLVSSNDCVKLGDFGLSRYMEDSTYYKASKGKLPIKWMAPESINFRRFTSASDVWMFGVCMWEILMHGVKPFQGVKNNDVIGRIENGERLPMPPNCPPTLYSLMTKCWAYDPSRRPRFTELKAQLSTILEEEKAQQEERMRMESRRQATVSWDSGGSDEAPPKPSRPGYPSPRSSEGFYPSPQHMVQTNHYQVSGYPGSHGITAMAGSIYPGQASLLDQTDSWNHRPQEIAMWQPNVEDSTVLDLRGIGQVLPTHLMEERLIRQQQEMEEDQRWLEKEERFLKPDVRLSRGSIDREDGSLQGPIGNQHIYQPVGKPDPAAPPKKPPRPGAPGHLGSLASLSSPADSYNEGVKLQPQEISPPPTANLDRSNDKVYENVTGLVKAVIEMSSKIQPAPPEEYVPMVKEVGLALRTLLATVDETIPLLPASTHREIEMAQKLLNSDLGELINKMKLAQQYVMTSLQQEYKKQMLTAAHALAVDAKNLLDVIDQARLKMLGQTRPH

Structure (SMILES) | AUC(0-t) at 24 h (in vivo) [ng·h/mL] | Cmax (in vivo) [ng/mL] | Tmax (in vivo) [h] | half-life (in vivo) [h] | pIC50 (FAK kinase) | pIC50 (HPK1 kinase) | pIC50 (FLT3)
CCc1cc2c(cc1Nc1ncc(C(F)(F)F)c(NCCCN3CCOCCC3=O)n1)OC[C@H]1CN(C3COC3)CCN21 [Compound A12R] | 1460 | 487 | 0.5 | 1.76 |  |  | 
CNC(=O)c1ccccc1Nc1cc(Nc2cc3c(cc2OC)N2CCN(C4CCOCC4)C[C@@H]2CO3)ncc1C(F)(F)F [Compound D1R] |  |  |  |  | > 8.52 | > 7.52 | > 7.52
